Experimental data taken from patent publication EP2578599A1 (LanthioPep B.V., priority 2011, dated 2013).

Legend:
trypsin = test: Proteolytic resistance: incubation of peptide conformations with trypsin; type: in vitro ADME
Experimental: Production of peptide in Lactococcus lactis and characterization of the peptide were performed as described in Plat et al. (Polymers 2011, 3, 1282-1296). […] After inducing dehydration the peptide was harvested from the medium and characterized. After overnight incubation of the purified peptide containing a lysinoalanine at RT in 0.25 % ammonia (w/v) the sample was applied on a C18 column ([…] analytical C18 column 5 μm). Peaks were collected and analyzed by mass spectrometry. Different conformations of the peptide were incubated with trypsin and cpY (Figure 2).

carboxypeptidase Y (cpY) = carboxypeptidase Y (cpY) (Saccharomyces cerevisiae, UniProt P00729); test: Proteolytic resistance: incubation of peptide conformations with carboxypeptidase Y; type: in vitro ADME; conditions: HPLC peaks of nisin leader - GLP-1 fragment (29-36) peptide treated with cpY
Chain of carboxypeptidase Y (cpY) (P00729 112-532): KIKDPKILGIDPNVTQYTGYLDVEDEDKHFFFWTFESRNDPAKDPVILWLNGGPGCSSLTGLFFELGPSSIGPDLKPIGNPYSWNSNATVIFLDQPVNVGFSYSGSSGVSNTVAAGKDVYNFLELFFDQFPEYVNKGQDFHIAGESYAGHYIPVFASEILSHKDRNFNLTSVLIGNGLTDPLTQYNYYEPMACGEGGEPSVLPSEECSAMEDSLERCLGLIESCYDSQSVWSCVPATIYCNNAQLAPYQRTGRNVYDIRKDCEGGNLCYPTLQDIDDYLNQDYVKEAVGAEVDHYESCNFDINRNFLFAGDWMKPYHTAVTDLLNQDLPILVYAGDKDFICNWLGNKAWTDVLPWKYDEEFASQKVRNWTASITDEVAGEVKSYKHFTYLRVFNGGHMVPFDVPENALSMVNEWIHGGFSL
Experimental: Production of peptide in Lactococcus lactis and characterization of the peptide were performed as described in Plat et al. (Polymers 2011, 3, 1282-1296).
After overnight incubation of the purified peptide containing a lysinoalanine at RT in 0.25 % ammonia (w/v) the sample was applied on a C18 column (Alltech, alltima analytical C18 column 5 µm). Peaks were collected and analyzed by mass spectrometry. Different conformations of the peptide were incubated with trypsin and cpY (Figure 2).

In the case of “nisin leader - I Dha W L V K G R [lysinoalanine-bridged GLP-1 peptide]”, the protection against trypsin (trypsin) is reported as “resistant” and the “protection against carboxypeptidase Y (cpY)” value (carboxypeptidase Y (cpY)) is reported as “resistant”.
